From ChEMBL document CHEMBL5543137, “Design and Synthesis of Novel Ultralong-Acting Peptides as EDP-EBP Interaction Inhibitors for Pulmonary Fibrosis Treatment” (J Med Chem, 2024) come the findings set out here.

One data set concerns Mus musculus. As to the kind of experiment: Antifibrotic activity against BLM-induced C57BL/6 mouse pulmonary fibrosis model assessed as improvement in lung condition at 30 mg/kg, po administered for 2 weeks starting from 7 days post BLM induction and measured after 21 days post BLM induction. The format is functional, organism-based.
Data set [1] is described as follows: Binding affinity to EBP (unknown origin) by ITC method. Further details: species or system Homo sapiens.
Data set [2] can be described thus: Half-life in Sprague-Dawley rat serum at 600 ug/kg, sc administered as single dose measured upto 10 days by LC-MS/MS method. The format is ADME, organism-based. The following applies: 0.6 mg/kg, dose 600 µg/kg, time < 10 day.
A short description of data set [3]: Tmax in Sprague-Dawley rat serum at 600 ug/kg, sc administered as single dose measured upto 10 days by LC-MS/MS method. Type of data set: ADME, organism-based. The following applies: 0.6 mg/kg, dose 600 µg/kg, time < 10 day.

The source made the active and inactive calls. The rule behind the calls is not given here.

For the molecule `COC(=O)c1ccc2c(c1)NC(=O)/C2=C(\Nc1ccc(N(C)C(=O)CN2CCN(C)CC2)cc1)c1ccccc1`, the outcome in the data set on Mus musculus was Active.
As to H-VVGSPSAQDEASPL-NH2, in data set [1], the Kd – broadly, the concentration at which binding is half-saturated – stood at 539 µM. Further, in data set [2], the half-life – broadly, the time in which the quantity being followed falls by half – was 5.88 min. Further, the Tmax (as a rule, the time at which the peak concentration occurs) in data set [3] stood at 4.98 min.
